pIC50: −log10 of the molar value. Where two headings read alike, the source gives them in different places.
Tests used:
[1] = tested on: mouse leukemic P-388 cells; details: cited from earlier work
[2] = target: T1, purified tubulin from pig brains (Sus scrofa, UniProt P02550+P02554); assay: Inhibition of polymerization of tubulin (turbidimetry); type: biochemical; details: pig brain tubulin, turbidimetry at 350 nm
T1 construct: from pig brains, where it forms 20-25% of the soluble proteins; from tissue; host or cells: pig brain
T1 sequence (P02554 whole entry): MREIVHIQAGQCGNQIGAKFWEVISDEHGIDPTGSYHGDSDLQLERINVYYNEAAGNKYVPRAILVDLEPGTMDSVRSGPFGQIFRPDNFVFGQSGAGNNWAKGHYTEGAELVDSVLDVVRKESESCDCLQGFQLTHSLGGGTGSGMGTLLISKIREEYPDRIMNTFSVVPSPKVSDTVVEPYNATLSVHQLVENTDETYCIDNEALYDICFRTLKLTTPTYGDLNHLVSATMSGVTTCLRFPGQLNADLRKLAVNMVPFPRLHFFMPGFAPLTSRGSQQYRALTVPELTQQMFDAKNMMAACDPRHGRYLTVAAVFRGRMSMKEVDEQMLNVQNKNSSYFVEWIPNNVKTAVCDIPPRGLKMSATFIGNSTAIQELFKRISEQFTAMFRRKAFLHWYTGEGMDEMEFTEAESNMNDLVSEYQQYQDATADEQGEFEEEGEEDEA
T1 sequence (P02550 whole entry): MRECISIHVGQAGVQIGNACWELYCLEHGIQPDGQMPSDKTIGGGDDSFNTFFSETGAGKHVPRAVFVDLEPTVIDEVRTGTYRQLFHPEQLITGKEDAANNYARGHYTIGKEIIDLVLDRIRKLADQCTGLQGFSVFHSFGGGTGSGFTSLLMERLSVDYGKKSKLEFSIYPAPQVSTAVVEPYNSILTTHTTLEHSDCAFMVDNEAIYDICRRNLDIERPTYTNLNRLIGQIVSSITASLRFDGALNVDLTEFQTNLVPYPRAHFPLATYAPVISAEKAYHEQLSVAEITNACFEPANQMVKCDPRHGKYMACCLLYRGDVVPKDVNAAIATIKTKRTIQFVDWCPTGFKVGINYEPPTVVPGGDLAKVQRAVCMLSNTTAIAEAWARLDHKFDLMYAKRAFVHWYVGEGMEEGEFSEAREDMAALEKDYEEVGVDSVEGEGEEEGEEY
Description: Tests relating to the inhibition of polymerization of tubulin were carried out on compounds which had the best cytotoxic activities. These tests were carried out on purified tubulin by the Shelanski method (Shelanski, M. C.; Gaskin, F.; Cantor, C. R. Proc. Natl. Acad. Sci. USA, 1973, 70, 765-768) from pig brains, where it forms 20-25% of the soluble proteins. Purification method is based on temperature-dependent assembling-disassembling cycles. Polymerization of tubulin was tracked with turbidimetry according to the Gaskin method (Gaskin, F.; Cantor, C. R.; Shelanski, M. L. J. Bio. Mol. 1974, 89, 737) at a wavelength of 350 nm. The different samples were dissolved in DMSO and incubated for 10 minutes at 37° C. and then for 5 minutes at 0° C.
The CA-4 compound and DMSO were taken as references.
The tests have shown for these compounds an activity inhibiting polymerization of tubulin similar to the one of the reference compound CA-4 (of the order of only one micromolar concentration to a few tens of micromolar concentrations).

[3] = tested on: MDA-MB 231; assay: Study of cytotoxicity (CellTiter-Blue, 72 hours); type: cell-based; details: Homo sapiens, read-out: IC50 for different cell lines: M231
Description: (§1) The biological activity of the compounds of the invention was studied in vitro on 7 human cancer cell lines with different tissue origins (HCT116: colorectal carcinoma; K562: chronic myeloid leukemia; B16-F10: melanoma; U87: glioblastoma; A549: lung cancer and MDA-MB 231 and MDA-MB 435: breast cancer). The cells selected for the study were incubated at 37° C. in the presence of one of the compounds added into the culture medium at different concentrations. The whole of the conducted experiments allowed determination of the toxicity level of the tested compound, its effect on the course of the cell cycle as well as its capacity of inducing cell death by apoptosis.
(§2) The cancer cell lines originate from the American Type Culture Collection (Rockville, Md., USA) and were grown according to the recommendations of the supplier.
(§3) The cells A549, U87, MDA-MB231, MDA-MB435 and B16F10 were grown in a culture medium “Dulbecco minimal essential medium” (DMEM) containing 4.5 g/L of glucose and supplemented with 10% fetal calf serum and 1% glutamine. The K562 and HCT116 were grown in an RPMI 1640 medium containing 10% fetal calf serum and 1% glutamine. All the cell lines were maintained in the culture at 37° C. in a humid atmosphere containing 5% of CO2. Cell viability was evaluated by using the reagent “CellTiter-Blue™” (Promega, Wis., USA) while observing the instructions of the manufacturer. The cells were sown in 96-well culture plates with 5000 cells per well in 50 μL of culture medium. After 24 hours of culture, the compounds of general formula (I) dissolved in DMSO were individually added into each of the wells in an amount of 50 μl per well. All the compounds were tested in triplicate for each defined concentration and each experiment was repeated three times. After 72 hours of incubation, 20 μL of resazurin were added in each well. After 2 hours of incubation, the emitted fluorescence was measured at 590 nm after excitation at 560 nm by means of a fluorescence reader of the Victor type (Perkin-Elmer, USA).
(§4) The concentration of each of the compounds which induces the death of 50% of the cells (IC50) was determined after 72 hours of incubation. Certain compounds according to the invention have an IC50 of the order of one nanomolar concentration, therefore equivalent to CA-4 taken as a reference.

[4] = tested on: A549; assay: Study of cytotoxicity (CellTiter-Blue, 72 hours); type: cell-based; details: Homo sapiens, read-out: IC50 for different cell lines: A549
Description: as §1, §2, §3, §4

[5] = tested on: HCT116; assay: Study of cytotoxicity (CellTiter-Blue, 72 hours); type: cell-based; details: Homo sapiens, HCT-116; 72 hours of incubation; read-out: IC50 for different cell lines: HCT116
Description: as §1, §2, §3, §4

[6] = tested on: MDA-MB 435; assay: Study of cytotoxicity (CellTiter-Blue, 72 hours); type: cell-based; details: Homo sapiens, read-out: IC50 for different cell lines: M435
Description: as §1, §2, §3, §4

[7] = tested on: U87; assay: Study of cytotoxicity (CellTiter-Blue, 72 hours); type: cell-based; details: Homo sapiens, U-87 MG, read-out: IC50 for different cell lines: U87
Description: as §1, §2, §3, §4

[8] = tested on: mouse colon adenocarcinoma 26; details: cited from earlier work
[9] = tested on: HCT 15 cells; details: read-out: IC50, cytotoxic activity; cited from earlier work
[10] = tested on: human colon tumors LS174T xenografted in Nude mice; assay: Antivascular activity in vivo (MRI, Dotarem entry into tumors); details: LS174T xenograft, 3 hours after administration, DMXAA 27.5 mg/kg IP, (I-1) 45 mg/kg IV
Description: The antivascular effect of the molecule (I-1) was tested on mice bearing human tumors by comparison with the positive control DMXAA, according to the procedure described by Beauregard et al. (NMR Biomed., 2002, 15:99-105).
Thus, CD-1 Nude female mice were xenografted by subcutaneous injection of human colon tumoral cells (LS174T). The mice bearing tumors were then treated with 0.9% NaCl (carrier, 10 mL/kg), DMXAA (27.5 mg/kg) via an intraperitoneal route (IP) or the molecule (I-1) (45 mg/kg) via an intravenous route (IV). Three hours after administration, the mice were treated with the Dotarem® contrast agent intravenously (IV). The penetration of the contrast agent into the tumors was followed in real time by magnetic resonance imaging (MRI) and is expressed by an enhancement of the intensity of the signal in the tumors. Densitometric analysis of the acquired images allows determination of the maximum enhancement (Rmax) as well as the slope P0 corresponding to the entry rate of Dotarem® into the tumors.

[11] = MDA-MB-231, 72 hours of incubation
[12] = MDA-MB-435, 72 hours of incubation

## COc1ccc(C=Cc2cc(OC)c(OC)c(OC)c2)cc1O (single isomer, unassigned) [E isomer of CA-4]
[1]
  Cytotoxic activity, times weaker than the natural Z isomer: about 60 times

## C=C(c1ccc(OC)cc1)c1cc(OC)c(OC)c(OC)c1 [(I-2)]
[2]
  pIC50: 5.48 to 5.70
[3]; [11]
  pIC50: 7.40
[4]; A549, 72 hours of incubation
  pIC50: 7.55
[5]
  pIC50: 7.38
[6]; [12]
  pIC50: 7.60

## C=C(c1ccc(OC)c(OC(C)=O)c1)c1cc(OC)c(OC)c(OC)c1 [(I-6)]
[3]; [11]
  pIC50: 8.05
[4]; A549, 72 hours of incubation
  pIC50: 7.60
[5]
  pIC50: 8.10
[7]; 72 hours of incubation
  pIC50: 7.74
[6]; [12]
  pIC50: 7.96

## C=C(c1ccc(OC)c(OC(=O)C(C)(C)C)c1)c1cc(OC)c(OC)c(OC)c1 [(I-7)]
[3]; [11]
  pIC50: 7.30
[4]; A549, 72 hours of incubation
  pIC50: 7.55
[5]
  pIC50: 8.10
[7]; 72 hours of incubation
  pIC50: 7.82
[6]; [12]
  pIC50: 7.60

## C=C(c1ccc(OC)c(OC(=O)CCCc2ccc(N(CCCl)CCCl)cc2)c1)c1cc(OC)c(OC)c(OC)c1 [(I-8)]
[3]; MDA-MB-231, 72 h
  pIC50: 7.30
[4]; A549, 72 h
  pIC50: 7.38
[5]
  pIC50: 7.60
[7]; 72 h
  pIC50: 7.46
[6]; MDA-MB-435, 72 h
  pIC50: 7.40

## C=C(c1ccc(OC)c(N)c1)c1cc(OC)c(OC)c(OC)c1 [(I-17)]
[2]
  pIC50: 5.74
[3]; [11]
  pIC50: 8.22
[4]; A549, 72 hours of incubation
  pIC50: 8.10

## C=C(c1ccc(OC)c(F)c1)c1cc(OC)c(OC)c(OC)c1 [(I-22)]
[2]
  pIC50: 5.39
[5]
  pIC50: 8.15

## C=C(c1ccc(OC)c(OC(=O)[C@@H](COC(C)(C)C)NC(=O)OCC2c3ccccc3-c3ccccc32)c1)c1cc(OC)c(OC)c(OC)c1 [(I-32)]
[5]
  pIC50: 8.10

## C=C(c1ccc(OC)c(OC(=O)c2ccncc2)c1)c1cc(OC)c(OC)c(OC)c1 [(I-34)]
[5]
  pIC50: 8.52

## C=C(c1ccc(OC)c(OC(=O)CCC(=O)O)c1)c1cc(OC)c(OC)c(OC)c1 [(I-35)]
[5]
  pIC50: 8.30

## C=C(c1ccc(OC)c(OC(=O)CN(C)C)c1)c1cc(OC)c(OC)c(OC)c1 [(I-36)]
[5]
  pIC50: 8.52

## C=C(c1ccc(OC)c(OC(=O)Cc2cccc3c(=O)c4ccc(C)c(C)c4oc23)c1)c1cc(OC)c(OC)c(OC)c1 [(I-45)]
[5]
  pIC50: 8.15

## COc1ccc(/C=C\c2cc(OC)c(OC)c(OC)c2)cc1O [CA-4, combrestatatin A-4]
[8]
  Antitumoral activity in vivo: no antitumoral activity is observed
[9]
  pIC50: 9.05

## Cc1ccc2c(=O)c3cccc(CC(=O)O)c3oc2c1C [DMXAA, 5,6-dimethylxanthenone-4-acetic acid, reference compound]
[10]
  Average of P0: 0.50±0.40 arbitrary unit
  Average of Rmax: 26.58±21.19 % of the NaCl control
